# Data taken from the supplement of paper PMC11061612.
# Tests used:
# Assay in all cases: combination Emax (second highest fraction inhibited in the dose matrix, 72 h); higher = more inhibition; extreme values may be limits of the assay
# [1] = system: CAPAN-2 (Pancreatic Carcinoma)
# Procedure, shortened: (§1)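 Cell lines grown in DMEM/F12 or RPMI with 10% FBS were plated in 1536-well plates and held 24 hours at 37°C, 5% CO2 before 72 hours of exposure to two-drug dose matrices, with DMSO typically at 0.2%. CellTiter-Glo 2.0 luminescence gave viability, which was converted to inhibition. Vehicle wells were set to 0 and blank wells to 1. Combination Emax is the second-highest inhibition in the matrix, and Bliss excess is the observed combination effect minus the expected EA + EB − EA·EB, where EA and EB are the single-agent effects.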
# [2] = system: CAS-1 (Glioblastoma)
# Procedure, shortened: as §1
# [3] = system: A498 (Kidney Carcinoma)
# Procedure, shortened: as §1
# [4] = system: HCC1954 (Breast Carcinoma)
# Procedure, shortened: as §1
# [5] = system: A3-KAW (B-Cell Non-Hodgkin's Lymphoma)
# Procedure, shortened: as §1
# [6] = system: Hs-445 (Non-Cancerous)
# Procedure, shortened: as §1
SMILES,combination Emax [1],combination Emax [2],combination Emax [3],combination Emax [4],combination Emax [5],combination Emax [6]
"Cc1cc2ncnn2cc1Nc1ncc2c(n1)n(C1CCOCC1)c(=O)n2C [AZD7648] + C[C@@H]1COCCN1C2=NC(=NC(=C2)C3(CC3)[S@](=N)(=O)C)C4=C5C=CNC5=NC=C4 [AZD6738] (first compound max 10 µM, 7x7, partner max 10 µM)",0.346,0.609,0.585,0.568,0.969,0.853
"COc1nnc2ccc(N3CCC(c4ccc(OCCN5CCN(C)C(=O)[C@H]5C)cc4)CC3)nn12 [AZD5153] + C=CCn1c(=O)c2cnc(Nc3ccc(N4CCN(C)CC4)cc3)nc2n1-c1cccc(C(C)(C)O)n1 [AZD1775] (first compound max 1 µM, partner max 1 µM)",0.328,0.658,0.534,0.306,1,0.71
"CC(=O)c1c(C)c2cnc(Nc3ccc(N4CCNCC4)cn3)nc2n(C2CCCC2)c1=O [Palbociclib] + Cn1cnc2c(F)c(Nc3ccc(Br)cc3Cl)c(C(=O)NOCCO)cc21 [Selumetinib] (first compound max 10 µM, 7x7, partner max 10 µM)",0.356,0.289,0.372,0.178,0.869,0.262
"NC1(C(=O)N[C@@H](CCO)c2ccc(Cl)cc2)CCN(c2ncnc3[nH]ccc23)CC1 [Capivasertib] + C[C@@H]1COCCN1C2=NC(=NC(=C2)C3(CC3)[S@](=N)(=O)C)C4=C5C=CNC5=NC=C4 [AZD6738] (first compound max 10 µM, 7x7, partner max 10 µM)",0.219,0.735,0.694,0.859,0.992,0.78
"CN(CCO)CC[C@H](CSc1ccccc1)Nc1ccc(S(=O)(=O)NC(=O)c2ccc(N3CCC([C@@H](O)c4ccccc4-c4ccc(Cl)cc4)CC3)cc2)cc1S(=O)(=O)C(F)(F)F [AZD4320] + C1CN(CCC1(C(=O)N[C@@H](CCO)C2=CC=C(C=C2)Cl)N)C3=NC=NC4=C3C=CN4 [Capivasertib] (first compound max 1 µM, 7x7, partner max 3 µM)",0.576,0.327,0.57,0.902,0.367,0.805
"CC(=O)c1c(C)c2cnc(Nc3ccc(N4CCNCC4)cn3)nc2n(C2CCCC2)c1=O [Palbociclib] + Cc1c2c(nn1C)CSCc1cc(n(C)n1)CSc1cc(c3ccccc3c1)OCCCc1c(C(=O)O)n(C)c3c-2c(Cl)ccc13 [AZD5991] (first compound max 10 µM, 7x7, partner max 1 µM)",0.139,0.32,0.406,0.712,1,0.337
"C[C@@H]1COCCN1c1cc(C2([S@](C)(=N)=O)CC2)nc(-c2ccnc3[nH]ccc23)n1 [AZD6738] + O=C(c1cc(Cc2n[nH]c(=O)c3ccccc23)ccc1F)N1CCN(C(=O)C2CC2)CC1 [Olaparib] (first compound max 10 µM, 7x7, partner max 10 µM)",0.309,0.48,0.636,0.353,0.984,0.835
"COc1cccc(OCCCN)c1-c1cc(Nc2cnc(C#N)cn2)n[nH]1 [Prexasertib] + O=C(c1cc(Cc2n[nH]c(=O)c3ccccc23)ccc1F)N1CCN(C(=O)C2CC2)CC1 [Olaparib] (first compound max 1 µM, 7x7, partner max 10 µM)",0.337,0.588,0.591,0.866,1,0.949
"CN(C)CCCOc1ccc(-c2ccc3ncc4c(c3c2)n(C2CCOCC2)c(=O)n4C)cn1 [AZD0156] + C=CCn1c(=O)c2cnc(Nc3ccc(N4CCN(C)CC4)cc3)nc2n1-c1cccc(C(C)(C)O)n1 [AZD1775] (first compound max 1 µM, partner max 1 µM)",0.39,0.464,0.544,0.181,0.95,0.926
"CCN(CCO)CCCOc1ccc2c(Nc3cc(CC(=O)Nc4cccc(F)c4)[nH]n3)ncnc2c1 [AZD2811] + C=CCn1c(=O)c2cnc(Nc3ccc(N4CCN(C)CC4)cc3)nc2n1-c1cccc(C(C)(C)O)n1 [AZD1775] (first compound max 1 µM, partner max 1 µM)",0.299,0.496,0.458,0.161,0.902,0.882
"CC1(C)CCC(CN2CCN(c3ccc(C(=O)NS(=O)(=O)c4ccc(NCC5CCOCC5)c([N+](=O)[O-])c4)c(Oc4cnc5[nH]ccc5c4)c3)CC2)=C(c2ccc(Cl)cc2)C1 [Venetoclax] + C[C@@H](Nc1cc(F)cc(F)c1)c1cc(C(=O)N(C)C)cc2c(=O)cc(N3CCOCC3)oc12 [AZD8186] (first compound max 1 µM, 7x7, partner max 3 µM)",0.194,0.399,0.632,0.0913,0.302,0.612
"COc1nnc2ccc(N3CCC(c4ccc(OCCN5CCN(C)C(=O)[C@H]5C)cc4)CC3)nn12 [AZD5153] + CCN(CCO)CCCOc1ccc2c(Nc3cc(CC(=O)Nc4cccc(F)c4)[nH]n3)ncnc2c1 [AZD2811] (first compound max 1 µM, 7x7, partner max 1 µM)",0.296,0.646,0.459,0.263,1,0.509
"C[C@@H](c1ccc2nccn2c1)n1nnc2ncc(-c3cnn(C)c3)nc21 [Savolitinib] + Cc1c2c(nn1C)CSCc1cc(n(C)n1)CSc1cc(c3ccccc3c1)OCCCc1c(C(=O)O)n(C)c3c-2c(Cl)ccc13 [AZD5991] (first compound max 1 µM, 7x7, partner max 1 µM)",0.166,0.194,0.212,0.85,1,0.211
"Cn1cnc2c(F)c(Nc3ccc(Br)cc3Cl)c(C(=O)NOCCO)cc21 [Selumetinib] + CC(C)n1c(=O)n(C)c2cnc3cc(F)c(-c4ccc(OCCCN5CCCCC5)nc4)cc3c21 [AZD1390] (first compound max 10 µM, 7x7, partner max 0.3 µM)",0.378,0.241,0.318,0.227,0.408,0.288
"Cn1cnc2c(F)c(Nc3ccc(Br)cc3Cl)c(C(=O)NOCCO)cc21 [Selumetinib] + CCN(CCO)CCCOc1ccc2c(Nc3cc(CC(=O)Nc4cccc(F)c4)[nH]n3)ncnc2c1 [AZD2811] (first compound max 10 µM, 7x7, partner max 1 µM)",0.407,0.277,0.383,0.29,0.597,0.414
"COc1cccc(OCCCN)c1-c1cc(Nc2cnc(C#N)cn2)n[nH]1 [Prexasertib] + C[C@@H]1COCCN1C2=NC(=NC(=C2)C3(CC3)[S@](=N)(=O)C)C4=C5C=CNC5=NC=C4 [AZD6738] (first compound max 1 µM, 7x7, partner max 10 µM)",0.513,0.652,0.692,0.878,1,0.951
"Cc1c2c(nn1C)CSCc1cc(n(C)n1)CSc1cc(c3ccccc3c1)OCCCc1c(C(=O)O)n(C)c3c-2c(Cl)ccc13 [AZD5991] + Cc1cc2ncnn2cc1Nc1ncc2c(n1)n(C1CCOCC1)c(=O)n2C [AZD7648] (first compound max 1 µM, 7x7, partner max 10 µM)",0.291,0.401,0.423,0.992,1,0.942
"COc1cc2ncnc(Nc3ccc(F)c(Cl)c3)c2cc1OCCCN1CCOCC1 [Gefitinib] + CC(C)n1c(=O)n(C)c2cnc3cc(F)c(-c4ccc(OCCCN5CCCCC5)nc4)cc3c21 [AZD1390] (first compound max 10 µM, 7x7, partner max 0.3 µM)",0.148,0.134,0.298,0.267,0.605,0.369
"NC1(C(=O)N[C@@H](CCO)c2ccc(Cl)cc2)CCN(c2ncnc3[nH]ccc23)CC1 [Capivasertib] + COc1nnc2ccc(N3CCC(c4ccc(OCCN5CCN(C)C(=O)[C@H]5C)cc4)CC3)nn12 [AZD5153] (first compound max 10 µM, 7x7, partner max 1 µM)",0.33,0.735,0.824,0.922,1,0.722
"CN(CCO)CC[C@H](CSc1ccccc1)Nc1ccc(S(=O)(=O)NC(=O)c2ccc(N3CCC([C@@H](O)c4ccccc4-c4ccc(Cl)cc4)CC3)cc2)cc1S(=O)(=O)C(F)(F)F [AZD4320] + C=CCn1c(=O)c2cnc(Nc3ccc(N4CCN(C)CC4)cc3)nc2n1-c1cccc(C(C)(C)O)n1 [AZD1775] (first compound max 1 µM, partner max 1 µM)",0.688,0.713,0.628,0.718,0.892,1
"CC1(C)CCC(CN2CCN(c3ccc(C(=O)NS(=O)(=O)c4ccc(NCC5CCOCC5)c([N+](=O)[O-])c4)c(Oc4cnc5[nH]ccc5c4)c3)CC2)=C(c2ccc(Cl)cc2)C1 [Venetoclax] + C=CCn1c(=O)c2cnc(Nc3ccc(N4CCN(C)CC4)cc3)nc2n1-c1cccc(C(C)(C)O)n1 [AZD1775] (first compound max 1 µM, partner max 1 µM)",0.453,0.615,0.452,0.364,0.937,0.99
"Cc1c2c(nn1C)CSCc1cc(n(C)n1)CSc1cc(c3ccccc3c1)OCCCc1c(C(=O)O)n(C)c3c-2c(Cl)ccc13 [AZD5991] + C[C@@H]1COCCN1C2=NC(=NC(=C2)C3(CC3)[S@](=N)(=O)C)C4=C5C=CNC5=NC=C4 [AZD6738] (first compound max 1 µM, 7x7, partner max 10 µM)",0.35,0.877,0.621,0.991,1,1
"COc1nnc2ccc(N3CCC(c4ccc(OCCN5CCN(C)C(=O)[C@H]5C)cc4)CC3)nn12 [AZD5153] + C[C@@H]1COCCN1C2=NC(=NC(=C2)C3(CC3)[S@](=N)(=O)C)C4=C5C=CNC5=NC=C4 [AZD6738] (first compound max 1 µM, 7x7, partner max 10 µM)",0.379,0.712,0.65,0.657,1,0.727
